Measured values reported in article PMC5795618 (Molecular pharmaceutics, 2017).
Read-outs that look alike come from different tables or passages of the source. Values belong to the molecule of their own block, whether it stands above or below them.

Assays:
[1] = target: recombinant human GCPII protein (Homo sapiens, UniProt Q04609); test: GCPII radioenzymatic activity assay; assay type: biochemical; details: read-out: IC50(±SEM)
[2] = rats; for tissue/plasma ratio: AUC tissue/AUC plasma of 2-PMPA
[3] = rats; for tissue/plasma ratio: AUC tissue/AUC plasma of 2-PMPA; remark: listed apart in the source
[4] = Plasma stability of 2-PMPA prodrugs, human plasma; assay type: in vitro ADME; details: 10 μM, 37 °C
[5] = cited from earlier work
[6] = equivalent 2-PMPA administration, cited from earlier work
GCPII = details: cited from earlier work
[7] = primates, IN 2-PMPA 30 mg/kg; cited from earlier work

Sequence of recombinant human GCPII protein (Q04609 whole entry): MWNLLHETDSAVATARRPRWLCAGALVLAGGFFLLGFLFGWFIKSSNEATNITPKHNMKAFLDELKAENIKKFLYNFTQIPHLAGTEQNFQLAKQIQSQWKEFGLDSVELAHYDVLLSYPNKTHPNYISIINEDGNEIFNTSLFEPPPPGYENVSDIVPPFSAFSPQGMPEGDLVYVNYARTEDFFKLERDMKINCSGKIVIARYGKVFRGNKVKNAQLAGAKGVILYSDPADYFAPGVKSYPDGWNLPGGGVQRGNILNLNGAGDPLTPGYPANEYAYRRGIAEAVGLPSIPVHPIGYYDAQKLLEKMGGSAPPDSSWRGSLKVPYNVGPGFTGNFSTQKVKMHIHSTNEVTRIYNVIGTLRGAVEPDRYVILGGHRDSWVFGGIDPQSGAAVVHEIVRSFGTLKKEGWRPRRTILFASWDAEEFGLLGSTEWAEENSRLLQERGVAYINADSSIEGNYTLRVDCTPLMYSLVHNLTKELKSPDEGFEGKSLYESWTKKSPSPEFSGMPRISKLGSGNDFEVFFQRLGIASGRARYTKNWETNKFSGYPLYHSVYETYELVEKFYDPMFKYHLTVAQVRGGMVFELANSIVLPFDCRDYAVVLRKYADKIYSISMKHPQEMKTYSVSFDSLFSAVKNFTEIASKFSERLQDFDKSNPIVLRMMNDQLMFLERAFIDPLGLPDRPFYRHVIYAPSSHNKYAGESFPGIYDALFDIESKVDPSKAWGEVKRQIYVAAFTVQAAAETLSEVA

Structure (SMILES): CC(=O)Oc1ccc(COC(=O)CCC(CP(=O)(O)O)C(=O)O)cc1 (stereo not shown) [Compound 1, γ-(4-acetoxybenzyl)-2-PMPA]
IC50 [1]: 3 ± 0.2 nM | tissue/plasma ratio ([2]; cerebellum, IV): 0.04 | fold lower 2-PMPA level after IV as compared to IN ([2]; cerebellum): 4 fold | tissue/plasma ratio ([2]; cortex, IV): 0.04 | fold lower 2-PMPA level after IV as compared to IN ([2]; cortex): 4.5 fold | tissue/plasma ratio ([2]; olfactory bulb, IV): 0.03 | tissue/plasma ratio ([2]; plasma, IV): 1 | intact prodrug in brain or sciatic nerve ([2]; IV, any time point): No intact prodrug was quantifiable | Cmax ([2]; read-out: intact prodrug Cmax in plasma, IV, 10 mg/kg equivalent): 0.2 µM | tissue/plasma ratio ([2]; sciatic nerve, IV): 0.21 | fold lower 2-PMPA level after IV as compared to IN ([2]; sciatic nerve): 5 fold | tissue/plasma ratio ([3]; cerebellum, IN): 0.26 | tissue/plasma ratio ([3]; olfactory bulb, IN): 2.2 | tissue/plasma ratio ([3]; plasma, IN): 1 | improvement of sciatic nerve to plasma ratio over free 2-PMPA ([3]; IN compound 1 versus equivalent dose of 2-PMPA): 7 fold | intact prodrug AUC in plasma ([3]; IN, 10 mg/kg equivalent): 8.04 µM·h | intact prodrug in brain or sciatic nerve ([3]; IN, any time point): No intact prodrug was quantifiable | Cmax ([3]; read-out: intact prodrug Cmax in plasma, IN, 10 mg/kg equivalent): 22 µM | tissue/plasma ratio ([3]; sciatic nerve, IN): 0.84 | Plasma stability % remaining @60 min Human [4]: 42%

Structure (SMILES): O=C(O)CCC(CP(=O)(O)O)C(=O)O (stereo not shown) [Compound 2-PMPA, 2-(Phosphonomethyl)pentanedioic acid]
oral bioavailability (F) [5]: < 2% | plasma exposure (AUC) ([6]; IN route): 79.1 µM·h | plasma exposure (AUC) ([6]; intraperitoneal (IP) route): 77.1 µM·h | IC50 (GCPII): […] | 2-PMPA concentration in CSF [7]: […]

IC50 ([1]; GCPII inhibition): 1 ± 0.1 nM
Structure (SMILES): CCCCOC(=O)CCC(CP(=O)(O)O)C(=O)O (stereo not shown) [Compound 3]

IC50 ([1]; GCPII inhibition): 20 ± 1 nM
Structure (SMILES): O=C(CCC(CP(=O)(O)O)C(=O)O)OCc1ccccc1 (stereo not shown) [Compound 4]

IC50 ([1]; GCPII inhibition): 2 ± 0.2 nM
Structure (SMILES): CCCCCCCCOC(=O)CCC(CP(=O)(O)O)C(=O)O (stereo not shown) [Compound 5]
